Target: T1, Human 5-lipoxygenase (Homo sapiens, UniProt P09917)
T1 construct: purchased Cayman 60402; host or cells: insect cells
T1 sequence (P09917 1-674): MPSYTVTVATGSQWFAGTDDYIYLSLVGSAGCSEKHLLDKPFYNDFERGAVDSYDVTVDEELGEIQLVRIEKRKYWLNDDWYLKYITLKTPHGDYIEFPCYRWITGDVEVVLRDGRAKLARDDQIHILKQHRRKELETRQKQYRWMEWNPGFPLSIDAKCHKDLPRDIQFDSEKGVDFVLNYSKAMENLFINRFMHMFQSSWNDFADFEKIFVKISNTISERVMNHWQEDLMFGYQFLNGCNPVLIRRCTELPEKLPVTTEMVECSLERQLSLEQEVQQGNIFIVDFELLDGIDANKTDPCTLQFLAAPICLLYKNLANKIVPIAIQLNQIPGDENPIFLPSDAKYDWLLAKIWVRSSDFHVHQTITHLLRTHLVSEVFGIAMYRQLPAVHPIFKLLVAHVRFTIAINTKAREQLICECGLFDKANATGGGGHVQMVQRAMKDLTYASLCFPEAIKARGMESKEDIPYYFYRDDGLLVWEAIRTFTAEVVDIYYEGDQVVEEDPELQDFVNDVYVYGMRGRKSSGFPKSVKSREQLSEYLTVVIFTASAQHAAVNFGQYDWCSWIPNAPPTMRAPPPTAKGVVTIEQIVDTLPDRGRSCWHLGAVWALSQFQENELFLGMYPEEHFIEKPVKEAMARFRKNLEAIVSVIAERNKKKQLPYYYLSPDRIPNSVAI
Assay: Activity of compounds against 5-LO enzyme (LTB4 measurement and/or fluorescence method)
Assay type: biochemical
Settings: 5-LO, single concentration of 10 uM in duplicate
Summary of the method: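 Two read-outs: LTB4 measured by EIA and/or LC/MS/MS with LTB4-d4 standard after 15 min RT compound preincubation with insect-cell 5-LO and a 5 min 37 °C reaction on 3 uM arachidonic acid (0.1 mM ATP, pH 7.4). The room-temperature fluorescence format used 20 uM H2DCFDA, 100 uM ATP, 3 uM arachidonic acid, 5 min; IC50 from 6/11-point curves.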

First: CCc1nc2cc(Cl)ccn2c1C(=O)NCc1ccc(N2CCC(Oc3ccc(F)cc3)CC2)cc1 [compound 70, 7-Chloro-2-ethyl-N-(4-(4-(4-fluorophenoxy)piperidin-1-yl)benzyl)imidazo[1,2-a]pyridine-3-carboxamide]
Second: CCc1nc2cc(Cl)ccn2c1C(=O)NCc1ccc(N2CCOCC2)cc1 [compound 93, 7-Chloro-2-ethyl-N-(4-morpholinobenzyl)imidazo[1,2-a]pyridine-3-carboxamide]
The inhibition at 10 µM of the first is higher: greater than 69% for the first, less than 40% for the second.

`CCc1nc2ccc(Cl)cn2c1CNCc1ccc(N(C)C)cc1` [compound 339, 4-((((6-chloro-2-ethylimidazo[1,2-a]pyridin-3-yl)methyl)amino)methyl)-N,N-dimethylaniline] and `CCc1nc2ccc(Cl)cn2c1CNCc1ccc(N2CCC(O)CC2)cc1` [compound 340, 1-(4-((((6-chloro-2-ethylimidazo[1,2-a]pyridin-3-yl)methyl)amino)methyl)phenyl)piperidin-4-ol] cannot be ordered by inhibition at 10 µM: less than 40% for the first, less than 40% for the second.

Compared with `CCc1nc2ccc(Cl)cn2c1CNCc1ccc(N2CCC(OCc3ccccc3)CC2)cc1` [compound 341, N-(4-(4-(benzyloxy)piperidin-1-yl)benzyl)-1-(6-chloro-2-ethylimidazo[1,2-a]pyridin-3-yl)methanamine], `CCc1nc2ccc(Cl)cn2c1CNCc1ccc(N2CCC3(CC2)OCCO3)cc1` [compound 346, N-(4-(1,4-dioxa-8-azaspiro[4.5]decan-8-yl)benzyl)-1-(6-chloro-2-ethylimidazo[1,2-a]pyridin-3-yl)methanamine] is lower in inhibition at 10 µM: 40 to 69% for the first, less than 40% for the second.

`CCc1nc2ccc(Cl)cn2c1CNCCc1ccccn1` [compound 342, N-((6-chloro-2-ethylimidazo[1,2-a]pyridin-3-yl)methyl)-2-(pyridin-2-yl)ethanamine] and `CCc1nc2ccc(Cl)cn2c1CNCCc1cccnc1` [compound 343, N-((6-chloro-2-ethylimidazo[1,2-a]pyridin-3-yl)methyl)-2-(pyridin-3-yl)ethanamine] cannot be ordered by inhibition at 10 µM: less than 40% for the first, less than 40% for the second.

`CCc1nc2ccc(Cl)cn2c1CNCCc1ccncc1` [compound 344, N-((6-chloro-2-ethylimidazo[1,2-a]pyridin-3-yl)methyl)-2-(pyridin-4-yl)ethanamine] and `CCc1nc2ccc(Cl)cn2c1CNC1CCN(Cc2ccccc2)C1` (centres unmarked) [compound 345, 1-Benzyl-N-((6-chloro-2-ethylimidazo[1,2-a]pyridin-3-yl)methyl)pyrrolidin-3-amine] cannot be ordered by inhibition at 10 µM: less than 40% for the first, less than 40% for the second.

Compared with `CCc1nc2ccc(Cl)cn2c1CN1CCC(OCc2ccc(OC(F)(F)F)cc2)CC1` [compound 347, 6-chloro-2-ethyl-3-((4-((4-(trifluoromethoxy)benzyl)oxy)piperidin-1-yl)methyl)imidazo[1,2-a]pyridine], `CCc1nc2ccc(Cl)cn2c1CN1CCC(CCc2ccc(F)cc2)CC1` [compound 349, 6-chloro-2-ethyl-3-((4-(4-fluorophenethyl)piperidin-1-yl)methyl)imidazo[1,2-a]pyridine] is lower in inhibition at 10 µM: greater than 69% for the first, 40 to 69% for the second.

Going from `CCc1nc2cc(Cl)ccn2c1-c1nnc(Cc2ccc(F)cc2)o1` [compound 348, 2-(7-chloro-2-ethylimidazo[1,2-a]pyridin-3-yl)-5-(4-fluorobenzyl)-1,3,4-oxadiazole] to `CCc1nc2cc(Cl)ccn2c1CNc1ccc(NC2CCN(c3ccc(F)cc3)CC2)cc1` [compound 375, N1-((7-chloro-2-ethylimidazo[1,2-a]pyridin-3-yl)methyl)-N4-(1-(4-fluorophenyl)piperidin-4-yl)benzene-1,4-diamine], the inhibition at 10 µM rises from less than 40% to greater than 69%.

`CCc1nc2ccc(Cl)cn2c1C(=O)N1CCC(Cn2cc(C(O)(CC)C(F)(F)F)nn2)CC1` (centres unmarked) [compound 350, (6-chloro-2-ethylimidazo[1,2-a]pyridin-3-yl)(4-((4-(1,1,1-trifluoro-2-hydroxybutan-2-yl)-1H-1,2,3-triazol-1-yl)methyl)piperidin-1-yl)methanone] and `CCc1nc2ccccn2c1CN1CCC(Cn2cc(C(O)(CC)C(F)(F)F)nn2)CC1` (centres unmarked) [compound 351, 2-(1-((1-((2-ethylimidazo[1,2-a]pyridin-3-yl)methyl)piperidin-4-yl)methyl)-1H-1,2,3-triazol-4-yl)-1,1,1-trifluorobutan-2-ol] cannot be ordered by inhibition at 10 µM: less than 40% for the first, less than 40% for the second.

`CCc1nc2ccccn2c1C(=O)NCc1ccc(CC2CCOCC2)cc1` [compound 357, 2-ethyl-N-(4-((tetrahydro-2H-pyran-4-yl)methyl)benzyl)imidazo[1,2-a]pyridine-3-carboxamide] and `CCc1nc2ccc(Cl)cn2c1C(=O)NCc1nc2ccc(Cl)cc2[nH]1` [compound 365, 6-chloro-N-((6-chloro-1H-benzo[d]imidazol-2-yl)methyl)-2-ethylimidazo[1,2-a]pyridine-3-carboxamide] cannot be ordered by inhibition at 10 µM: less than 40% for the first, less than 40% for the second.

Compound `CCc1nc2cc(Cl)ccn2c1CNc1ccc(N2CCC(c3ccc(OC(F)(F)F)cc3)CC2)cc1` [compound 376, N-((7-chloro-2-ethylimidazo[1,2-a]pyridin-3-yl)methyl)-4-(4-(4-(trifluoromethoxy)phenyl)piperidin-1-yl)aniline] has an inhibition at 10 µM greater than 69%.

Same assay, conditions: 6 or 11 point dose response in duplicate

First: CCc1nc2cc(Cl)ccn2c1C(=O)NCc1ccc(N2CCC(Oc3ccc(F)cc3)CC2)cc1 [compound 70, 7-Chloro-2-ethyl-N-(4-(4-(4-fluorophenoxy)piperidin-1-yl)benzyl)imidazo[1,2-a]pyridine-3-carboxamide]
Second: CCc1nc2cc(Cl)ccn2c1C(=O)N1CCC(Oc2ccc(OC(F)(F)F)cc2)CC1 [compound 380, (7-Chloro-2-ethylimidazo[1,2-a]pyridin-3-yl)(4-(4-(trifluoromethoxy)phenoxy)piperidin-1-yl)methanone]
The IC50 of the first is higher: 1 to 20 µM for the first, less than 1 µM for the second. The second is the more potent here.

Compared with `CCc1nc2ccc(Cl)cn2c1CNCc1ccc(N2CCN(c3ccc(F)cc3)CC2)cc1` [compound 381, 1-(6-chloro-2-ethylimidazo[1,2-a]pyridin-3-yl)-N-(4-(4-(4-fluorophenyl)piperazin-1-yl)benzyl)methanamine], `CCc1nc2cnccn2c1CNc1ccc(N2CCN(c3ccc(F)cc3)CC2)cc1` [compound 398, N-((2-Ethylimidazo[1,2-a]pyrazin-3-yl)methyl)-4-(4-(4-fluorophenyl)piperazin-1-yl)aniline] is lower in IC50: 1 to 20 µM for the first, less than 1 µM for the second.

`CCc1nc2ccc(Cl)cn2c1C(=O)N1CCCC(OCc2ccc(OC(F)(F)F)cc2)C1` (centres unmarked) [compound 382, (6-chloro-2-ethylimidazo[1,2-a]pyridin-3-yl)(3-(4-(trifluoromethoxy)benzyloxy)-piperidin-1-yl)methanone] and `CCc1nc2ccc(Cl)cn2c1C(=O)N1CC[C@H](OCc2ccc(OC(F)(F)F)cc2)C1` [compound 390, (S)-(6-chloro-2-ethylimidazo[1,2-a]pyridin-3-yl)(3-(4-(trifluoromethoxy)benzyloxy)-pyrrolidin-1-yl)methanone] fall in the same range of IC50: 1 to 20 µM for the first, 1 to 20 µM for the second.

`CCc1nc2ncccn2c1C(=O)N1CCC(OCc2ccc(OC(F)(F)F)cc2)CC1` [compound 385, (2-Ethylimidazo[1,2-a]pyrimidin-3-yl)(4-((4-(trifluoromethoxy)benzyl)oxy)piperidin-1-yl)methanone] and `CCc1nc2cnccn2c1C(=O)N1CCC(OCc2ccc(OC(F)(F)F)cc2)CC1` [compound 389, (2-Ethylimidazo[1,2-a]pyrazin-3-yl)(4-((4-(trifluoromethoxy)benzyl)oxy)piperidin-1-yl)methanone] cannot be ordered by IC50: greater than 20 µM for the first, greater than 20 µM for the second.

Going from `CCc1nc2cccnn2c1C(=O)N1CCC(OCc2ccc(OC(F)(F)F)cc2)CC1` [compound 387, (2-Ethylimidazo[1,2-b]pyridazin-3-yl)(4-((4-(trifluoromethoxy)benzyl)oxy)piperidin-1-yl)methanone] to `CCc1nc2cc(Cl)ccn2c1C(=O)N1CCC(OCc2ccc(OC(F)(F)F)cc2)CC1` [compound 393, (7-chloro-2-ethylimidazo[1,2-a]pyridin-3-yl)(4-(4-(trifluoromethoxy)benzyloxy)piperidin-1-yl)methanone], the IC50 falls from greater than 20 µM to less than 1 µM. The second is the more potent here.

First: CCc1nc2cccnn2c1C(=O)NCc1ccc(-c2ccc(Cl)cc2)cc1 [compound 388, N-((4′-Chloro-[1,1′-biphenyl]-4-yl)methyl)-2-ethylimidazo[1,2-b]pyridazine-3-carboxamide]
Second: CCc1nc2ccc(Cl)cn2c1CNc1ccc(Oc2ccc(OC(F)(F)F)cc2)cc1 [compound 394, N-((6-chloro-2-ethylimidazo[1,2-a]pyridin-3-yl)methyl)-4-(4-(trifluoromethoxy)-phenoxy)aniline]
The IC50 of the first is higher: greater than 20 µM for the first, less than 1 µM for the second. The second is the more potent here.

Compared with `CCc1nc2ccc(Cl)cn2c1C(=O)N1CC[C@@H](OCc2ccc(OC(F)(F)F)cc2)C1` [compound 391, (R)-(6-chloro-2-ethylimidazo[1,2-a]pyridin-3-yl)(3-(4-(trifluoromethoxy)benzyloxy)-pyrrolidin-1-yl)methanone], `CCc1nc2ccc(Cl)cn2c1CN1CCN(c2ccc(F)cc2)CC1` [compound 397, 6-chloro-2-ethyl-3-((4-(4-fluorophenyl)piperazin-1-yl)methyl)imidazo[1,2-a]pyridine] is higher in IC50: 1 to 20 µM for the first, greater than 20 µM for the second.

Tested on: not given
Assay: not given
Settings: not given

Compared with `CCc1nc2cc(Cl)ccn2c1C(=O)NCc1ccc(N2CCC(Oc3ccc(F)cc3)CC2)cc1` [compound 70, 7-Chloro-2-ethyl-N-(4-(4-(4-fluorophenoxy)piperidin-1-yl)benzyl)imidazo[1,2-a]pyridine-3-carboxamide], `CCc1nc2cc(Cl)ccn2c1C(=O)NCc1ccc(N2CCOCC2)cc1` [compound 93, 7-Chloro-2-ethyl-N-(4-morpholinobenzyl)imidazo[1,2-a]pyridine-3-carboxamide] is higher in melting point: 138 to 139 °C for the first, 195 °C for the second.

Source: patent publication US9029389B2 (Institut Pasteur Korea, priority 2011, dated 2015)
